These results are taken from patent US11059784B2, “Oxime ether compounds” (BRISTOL-MYERS SQUIBB COMPANY, priority 2017, dated 2021).

The target in assay [1] is T1, S1P1 (Homo sapiens (Human), UniProt P21453). Put plainly: S1P1 Binding Assay (33P-S1P ligand competition, CHO membranes). Conditions: membranes from CHO cells expressing human S1P1. On the procedure:
Membranes were prepared from CHO cells expressing human S1P1. Cells pellets (1×10^9 cells/pellet) were suspended in buffer containing 20 mM HEPES (4-(2-hydroxyethyl)-1-piperazineethanesulfonic acid), pH 7.5, 50 mM NaCl, 2 mM EDTA (ethylenediamine tetraacetic acid) and Protease Inhibitor cocktail (Roche), and disrupted on ice using the Polytron homogenizer. The homogenate was centrifuged at 20,000 rpm (48,000 g) and the supernatant was discarded. The membrane pellets were resuspended in buffer containing 50 mM HEPES, pH 7.5, 100 mM NaCl, 1 mM MgCl2, 2 mM EDTA and stored in aliquots at −80° C. after protein concentration determination.
Membranes (2 μg/well) and 0.03 nM final concentration of ^33P-S1P ligand (1 mCi/ml, Perkin Elmer or American Radiolabeled Chemicals) diluted in assay buffer (50 mM HEPES, pH7.4, 5 mM MgCl2, 1 mM CaCl2), 0.5% fatty acid free BSA (bovine serum albumin), 1 mM NaF) were added to the compound plates (384 Falcon v-bottom plate (0.5 μl/well in a 11 point, 3-fold dilution). Binding was performed for 45 minutes at room temperature, terminated by collecting the membranes onto 384-well Millipore FB filter plates, and radioactivity was measured by TOPCOUNT®. The competition data of the test compounds over a range of concentrations was plotted as percentage inhibition of radioligand specific binding. The IC50 is defined as the concentration of competing ligand needed to reduce specific binding by 50%.

The target in assay [2] is T1, S1P1. Put plainly: Receptor [35S] GTPγS Binding Assay, S1P1. Format: biochemical. Conditions: membranes from S1P1/CHO cells. On the procedure:
(§1) Receptor [^35S] GTPγS Binding Assays:
(§2) Compounds were loaded in a 384 Falcon v-bottom plate (0.5 μl/well in an 11 point, 3-fold dilution). Membranes prepared from S1P1/CHO cells or EDG3-Gal5-bla HEK293T cells (EDG3 equivalent S1P3) were added to the compound plate ([…], final protein 3 μg/well) with MULTIDROP®. [^35S]GTP (1250 Ci/mmol, Perkin Elmer) was diluted in assay buffer: 20 mM HEPES, pH7.5, 10 mM MgCl2, 150 mM NaCl, 1 mM EGTA (ethylene glycol tetraacetic acid), 1 mM DTT (Dithiothreitol), 10 μM GDP, 0.1% fatty acid free BSA, and 10 μg/ml Saponin to 0.4 nM. 40 μl of the [35S] GTP solution was added to the compound plate with a final concentration of 0.2 nM. The reaction was kept at room temperature for 45 min. At the end of incubation, all the mixtures in the compound plate were transferred to Millipore 384-well FB filter plates via the VELOCITY11 ® Vprep liquid handler. The filter plate was washed with water 4 times by using the manifold Embla plate washer and dried at 60° C. for 45 min. MicroScint 20 scintillation fluid (30 μl) was added to each well for counting on the Packard TOPCOUNT®. EC50 is defined as the agonist concentration that corresponds to 50% of the Ymax (maximal response) obtained for each individual compound tested.
A smaller value for GTPγS S1P1 EC50 value indicated greater activity for the compound in the GTPγS S1P1 binding assay. Thus the compounds of the present invention may be used in treating, preventing, or curing various S1P1 receptor-related conditions. The compounds have potential use in treating, preventing, or curing autoimmune and inflammatory diseases such as multiple sclerosis, rheumatoid arthritis, inflammatory bowel disease, lupus, psoriasis, or minimizing or reducing rejection of transplanted organs.
In general terms: GTPγS resists hydrolysis and so accumulates on activated G proteins.

For assay [3], the target named is S1P3 (Homo sapiens (Human), UniProt Q99500). Put plainly: Receptor [35S] GTPγS Binding Assay, S1P3. Conditions: membranes from EDG3-Gal5-bla HEK293T cells. Format: biochemical. On the procedure:
as §1, §2

Bounds are passed on as bounds.

S1P3, sequence (Q99500 whole entry): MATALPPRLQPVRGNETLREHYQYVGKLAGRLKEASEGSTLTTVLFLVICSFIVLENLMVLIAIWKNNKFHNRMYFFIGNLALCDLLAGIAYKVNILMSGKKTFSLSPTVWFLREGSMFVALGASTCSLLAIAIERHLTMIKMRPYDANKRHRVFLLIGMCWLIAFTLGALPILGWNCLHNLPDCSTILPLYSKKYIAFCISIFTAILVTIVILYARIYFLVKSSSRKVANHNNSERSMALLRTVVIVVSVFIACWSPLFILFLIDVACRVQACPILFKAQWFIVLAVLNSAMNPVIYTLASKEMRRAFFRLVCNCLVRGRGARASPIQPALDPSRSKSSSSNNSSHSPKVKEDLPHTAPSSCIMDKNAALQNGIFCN
T1 sequence (P21453 whole entry): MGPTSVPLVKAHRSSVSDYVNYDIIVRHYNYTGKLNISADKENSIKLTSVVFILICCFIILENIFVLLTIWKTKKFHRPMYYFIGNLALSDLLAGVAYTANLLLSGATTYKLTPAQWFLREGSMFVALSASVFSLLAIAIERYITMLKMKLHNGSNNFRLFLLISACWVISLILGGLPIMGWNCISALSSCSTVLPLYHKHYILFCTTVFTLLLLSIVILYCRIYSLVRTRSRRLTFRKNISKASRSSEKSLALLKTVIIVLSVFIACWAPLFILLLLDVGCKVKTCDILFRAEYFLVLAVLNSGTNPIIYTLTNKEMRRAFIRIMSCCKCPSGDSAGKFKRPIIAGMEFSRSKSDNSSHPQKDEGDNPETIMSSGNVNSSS

As usually defined, the IC50 is the concentration needed to halve the response being measured. Read a low IC50 as inhibition by little substance. By EC50 is commonly meant the concentration giving half of the maximal effect. The low end stands for a more potent agent, the high end for a less potent agent. The compound `C/C(=N\OCc1ccc(C2CCCCC2)c(C(F)(F)F)c1)c1ccc(C(=O)N2CCC(N)(COP(=O)(O)O)C2)cc1` (single isomer, unassigned) [Example 59, (E)-(3-amino-1-(4-(1-(((4-cyclohexyl-3-(trifluoromethyl)benzyl)oxy)imino)ethyl)benzoyl)pyrrolidin-3-yl)methyl dihydrogen phosphate] yielded an IC50 in assay [1] of 10.5 nM. Also, the EC50 is 136 nM in assay [2] and over 3130 nM in assay [3].
The matching figures for `C/C(=N\OCc1ccc(C2CCCCC2)c(C(F)(F)F)c1)c1ccc(C(=O)N2CCC(N)(COP(=O)(O)O)C2)cc1` (single isomer, unassigned) [Example 60, (E)-(3-amino-1-(4-(1-(((4-cyclohexyl-3-(trifluoromethyl)benzyl)oxy)imino)ethyl)benzoyl)pyrrolidin-3-yl)methyl dihydrogen phosphate]: 28.4 nM, 434 nM and over 6250 nM.
For `C/C(=N\OCCCc1ccccc1)c1ccc(C(=O)N2CCC(N)(COP(=O)(O)O)C2)cc1` (single isomer, unassigned) [Example 61, (E)-(3-amino-1-(4-(1-((3-phenylpropoxy)imino)ethyl)benzoyl)pyrrolidin-3-yl)methyl dihydrogen phosphate], in that order: 126 nM, 204 nM and over 6250 nM.
The matching figures for `C/C(=N\OCCCc1ccccc1)c1ccc(C(=O)N2CCC(N)(COP(=O)(O)O)C2)cc1` (single isomer, unassigned) [Example 62, (E)-(3-amino-1-(4-(1-((3-phenylpropoxy)imino)ethyl)benzoyl)pyrrolidin-3-yl)methyl dihydrogen phosphate]: 1470 nM, 504 nM and over 6250 nM.
As to `CC/C(=N\OCCCc1ccccc1)c1ccc(C(=O)N2CCC(N)(COP(=O)(O)O)C2)cc1` (single isomer, unassigned) [Example 63, (E)-(3-amino-1-(4-(1-((3-phenylpropoxy)imino)propyl)benzoyl)pyrrolidin-3-yl) methyl dihydrogen phosphate], the IC50 in assay [1] came out at 183 nM. The EC50 was 342 nM in assay [2] and over 6250 nM in assay [3].
For `CC/C(=N\OCCCc1ccccc1)c1ccc(C(=O)N2CCC(N)(COP(=O)(O)O)C2)cc1` (single isomer, unassigned) [Example 64, (E)-(3-amino-1-(4-(1-((3-phenylpropoxy)imino)propyl)benzoyl)pyrrolidin-3-yl) methyl dihydrogen phosphate], in that order: 2530 nM, 500 nM and over 6250 nM.
The compound `C/C(=N\OCc1ccc(C2CCCCC2)c(C(F)(F)F)c1)c1ccc(C(=O)N2CCCC(N)(COP(=O)(O)O)C2)cc1` (single isomer, unassigned) [Example 66, (E)-(3-amino-1-(4-(1-(((4-cyclohexyl-3-(trifluoromethyl)benzyl)oxy)imino)ethyl)benzoyl)piperidin-3-yl)methyl dihydrogen phosphate] registered an IC50 in assay [1] of 62 nM. The EC50 in assay [2] amounted to 194 nM; in assay [3], 9370 nM.
The matching figures for `C/C(=N\OCc1ccc(C2CCCCC2)c(C(F)(F)F)c1)c1ccc(C(=O)N2CCCC(N)(COP(=O)(O)O)C2)cc1` (single isomer, unassigned) [Example 67, (E)-(3-amino-1-(4-(1-(((4-cyclohexyl-3-(trifluoromethyl)benzyl)oxy)imino)ethyl)benzoyl)piperidin-3-yl)methyl dihydrogen phosphate]: 120 nM, 754 nM and over 18000 nM.
For `C/C(=N\OCCCc1ccccc1)c1ccc(C(=O)N2CCCC(N)(COP(=O)(O)O)C2)cc1` (single isomer, unassigned) [Example 68, (E)-(3-amino-1-(4-(1-((3-phenylpropoxy)imino)ethyl)benzoyl)piperidin-3-yl)methyl dihydrogen phosphate], in that order: 362 nM, 399 nM and 9370 nM.
Consider `C/C(=N\OCCCc1ccccc1)c1ccc(C(=O)N2CCCC(N)(COP(=O)(O)O)C2)cc1` (single isomer, unassigned) [Example 69, (E)-(3-amino-1-(4-(1-((3-phenylpropoxy)imino)ethyl)benzoyl)piperidin-3-yl)methyl dihydrogen phosphate], for which the IC50 in assay [1] amounted to 899 nM. Further, in assay [2], the EC50 is 767 nM.
`C/C(=N\OCCc1ccccc1)c1ccc(C2CC[C@](N)(COP(=O)(O)O)C2)cc1` (stereo in doubt) [Example 73, ((1R,3R)-1-amino-3-(4-((E)-1-(phenethoxyimino)ethyl)phenyl)cyclopentyl)methyl dihydrogen phosphate] had an IC50 in assay [1] of 49.6 nM. Besides, the EC50 in assay [2] was 44.4 nM; in assay [3] it was over 30000 nM.
`CC(=NOCC1CC1)c1ccc([C@@H]2CC[C@](N)(COP(=O)(O)O)C2)cc1` [Example 38, ((1R,3R)-1-amino-3-(4-(1-((cyclopropylmethoxy)imino)ethyl)phenyl)cyclopentyl)methyl Dihydrogen Phosphate] gave an IC50 in assay [1] of 284 nM. In addition, the EC50 in assay [2] and in assay [3] was over 30000 nM each time.
`CC(=NOCc1ccccc1)c1ccc([C@@H]2CC[C@](N)(COP(=O)(O)O)C2)cc1` [Example 39, ((1R,3R)-1-amino-3-(4-(1-((benzyloxy)imino)ethyl)phenyl)cyclopentyl)methyl dihydrogen phosphate] displayed an IC50 in assay [1] of 865 nM.
With `C/C(=N\OCc1ccc(C2CCCCC2)c(C(F)(F)F)c1)c1ccc([C@@H]2CC[C@](N)(COP(=O)(O)O)C2)cc1` [Example 40, ((1R,3R)-1-amino-3-(4-((E)-1-(((4-cyclohexyl-3-(trifluoromethyl)benzyl)oxy)imino)ethyl)phenyl)cyclopentyl) methyl dihydrogen phosphate], the IC50 in assay [1] stood at 28.3 nM. Moreover, the figures for the half-maximal effective concentration (EC50) in assay [2] and in assay [3] were 38.1 nM and over 60000 nM, respectively.
With `CC(=NOCc1ccc([N+](=O)[O-])cc1)c1ccc([C@@H]2CC[C@](N)(COP(=O)(O)O)C2)cc1` [Example 42, ((1R,3R)-1-amino-3-(4-(1-(((4-nitrobenzyl)oxy)imino)ethyl)phenyl)cyclopentyl) methyl dihydrogen phosphate], the EC50 in assay [2] is 17.6 nM; in assay [3], over 30000 nM.
The matching figures for `CC(=NOCc1ccc(F)cc1)c1ccc([C@@H]2CC[C@](N)(COP(=O)(O)O)C2)cc1` [Example 43, ((1R,3R)-1-amino-3-(4-(1-(((4-fluorobenzyl)oxy)imino)ethyl)phenyl)cyclopentyl) methyl dihydrogen phosphate]: 26.4 nM and over 30000 nM.
For the compound `COc1cccc(/C(C)=N/OCc2ccc([C@H]3CC[C@](N)(COP(=O)(O)O)C3)cc2)c1` [Example 54, ((1R,3S)-1-amino-3-(4-(((((E)-1-(3-methoxyphenyl)ethylidene)amino)oxy)methyl)phenyl)cyclopentyl) methyl dihydrogen phosphate], the IC50 in assay [1] was 14.2 nM. That is a double-digit nanomolar value.
Regarding `CC(=NOCCc1ccccc1)c1ccc(C(=O)N2CCC(N)(COP(=O)(O)O)C2)cc1` (stereo not drawn) [Example 55, (3-amino-1-(4-(1-(phenethoxyimino)ethyl)benzoyl)pyrrolidin-3-yl)methyl Dihydrogen Phosphate], the EC50 was 1560 nM in assay [2] and over 60000 nM in assay [3].
For `C/C(=N\OCCc1ccccc1)c1ccc(C(=O)N2CCC(N)(COP(=O)(O)O)CC2)cc1` [Example 56, (4-amino-1-(4-(1-(phenethoxyimino)ethyl)benzoyl)piperidin-4-yl)methyl dihydrogen phosphate], in that order: 295 nM and over 60000 nM.
